Experimental data published in publication PMC6522510 (Nature Communications, 2019).
Where a name gives a salt, the structure may show the parent alone. Read-outs that look alike come from different tables or passages of the source.

How the values were obtained:
Design in all cases: species or system AML cell lines (8); Primary HTS, single concentration about 10 uM, Cell Titer Glo viability; log10 luminescence, per cent inhibition relative to cycloheximide control
Details in all cases: 72 h, relative to cycloheximide control, log10 luminescence, inhibitor
ML-2 = tested on: ML-2
CHRF288-11 = tested on: CHRF288-11
MV4-11 = tested on: MV4-11
MOLM-13 = tested on: MOLM-13
M07e = tested on: M07e
U937 = tested on: U937
CMS = tested on: CMS
CMK = tested on: CMK

Structure (SMILES): CC1(COc2ccc(CC3SC(=O)NC3=O)cc2)CCCCC1 (stereo not shown) [SJ000546494-1, CIGLITAZONE]
- ML-2 %inh (ML-2): 1.382%
- CHRF288-11 %inh (CHRF288-11): 3.672%
- MV4-11 %inh (MV4-11): 4.011%
- MOLM-13 %inh (MOLM-13): -0.9508%
- M07e %inh (M07e): -0.4942%
- U937 %inh (U937): 0.7442%
- CMS %inh (CMS): -1.931%
- CMK %inh (CMK): 0.5377%

Structure (SMILES): CCc1cccc2c3c([nH]c12)C(CC)(CC(=O)O)OCC3 (stereo not shown) [SJ000285831-7, ETODOLAC]
- ML-2 %inh (ML-2): 1.517%
- CHRF288-11 %inh (CHRF288-11): -0.814%
- MV4-11 %inh (MV4-11): 1.346%
- MOLM-13 %inh (MOLM-13): 1.754%
- M07e %inh (M07e): 4.534%
- U937 %inh (U937): -0.08316%
- CMS %inh (CMS): 0.03623%
- CMK %inh (CMK): 4.628%

Structure (SMILES): COc1ccc(-c2coc3ncnc(N)c23)cc1 [SJ000573323-1, R6872/61/3]
- ML-2 %inh (ML-2): -3.247%
- CHRF288-11 %inh (CHRF288-11): 1.277%
- MV4-11 %inh (MV4-11): -1.377%
- MOLM-13 %inh (MOLM-13): 0.9708%
- M07e %inh (M07e): -2.594%
- U937 %inh (U937): 2.094%
- CMS %inh (CMS): -2.18%
- CMK %inh (CMK): 0.752%

Structure (SMILES): CN(C)C(=O)Oc1ccc[n+](C)c1 [SJ000286222-6, PYRIDOSTIGMINE BROMIDE]
- ML-2 %inh (ML-2): 1.797%
- CHRF288-11 %inh (CHRF288-11): -1.775%
- MV4-11 %inh (MV4-11): -1.282%
- MOLM-13 %inh (MOLM-13): -2.128%
- M07e %inh (M07e): 2.078%
- U937 %inh (U937): 1.718%
- CMS %inh (CMS): -3.618%
- CMK %inh (CMK): -7.252%

Structure (SMILES): CN1CCC(n2cnc(-c3ccc(F)cc3)c2-c2ccnc(Nc3ccccc3)n2)CC1 [SJ000573236-1, TG19207-284A1]
- ML-2 %inh (ML-2): 9.737%
- CHRF288-11 %inh (CHRF288-11): 30.13%
- MV4-11 %inh (MV4-11): 26.4%
- MOLM-13 %inh (MOLM-13): 50.36%
- M07e %inh (M07e): 7.373%
- U937 %inh (U937): 6.434%
- CMS %inh (CMS): 10.11%
- CMK %inh (CMK): 43.62%

Structure (SMILES): OCCN1CCN(CCCN2c3ccccc3Sc3ccc(Cl)cc32)CC1 [SJ000286016-8, PERPHENAZINE]
- ML-2 %inh (ML-2; ML-2 %inh, 10 µM): 2.921%
- CHRF288-11 %inh (CHRF288-11; CHRF288-11 %inh, 10 µM): 40.76%
- MV4-11 %inh (MV4-11; MV4-11 %inh, 10 µM): 2.594%
- MOLM-13 %inh (MOLM-13; MOLM-13 %inh, 10 µM): 2.324%
- M07e %inh (M07e; M07e %inh, 10 µM): 5.089%
- U937 %inh (U937; U937 %inh, 10 µM): 5.279%
- CMS %inh (CMS; CMS %inh, 10 µM): 3.223%
- CMK %inh (CMK; CMK %inh, 10 µM): 10.21%

Structure (SMILES): CCOC(=O)C1=C(C)NC(C)=C(C(=O)OC)C1c1cccc(Cl)c1Cl (single isomer, unassigned) [SJ000287293-6, FELODIPINE]
- ML-2 %inh (ML-2; ML-2 %inh, 10 µM): 0.03711%
- CHRF288-11 %inh (CHRF288-11; CHRF288-11 %inh, 10 µM): 40.78%
- MV4-11 %inh (MV4-11; MV4-11 %inh, 10 µM): 5.092%
- MOLM-13 %inh (MOLM-13; MOLM-13 %inh, 10 µM): 23.61%
- M07e %inh (M07e; M07e %inh, 10 µM): 5.04%
- U937 %inh (U937; U937 %inh, 10 µM): 12.66%
- CMS %inh (CMS; CMS %inh, 10 µM): 3.783%
- CMK %inh (CMK; CMK %inh, 10 µM): 32.28%

Structure (SMILES): CN(C)[C@@H]1C(=O)C(C(N)=O)=C(O)[C@@]2(O)C(=O)C3=C(O)c4c(O)cccc4[C@@](C)(O)[C@H]3[C@H](O)[C@@H]12 [SJ000285682-4, OXYTETRACYCLINE | OXYTETRACYCLINE DIHYDRATE | OXYTETRACYCLINE HYDROCHLORIDE | OXYTETRACYCLINE (TERRAMYCIN)]
- ML-2 %inh (ML-2): 0.3169%
- CHRF288-11 %inh (CHRF288-11): 25.02%
- MV4-11 %inh (MV4-11): -1.23%
- MOLM-13 %inh (MOLM-13): 3.957%
- M07e %inh (M07e): -0.1554%
- U937 %inh (U937): 0.3352%
- CMS %inh (CMS): 0.1991%
- CMK %inh (CMK): -2.364%

Structure (SMILES): O=c1oc2ccccc2c(O)c1Cc1c(O)c2ccccc2oc1=O [SJ000285189-5, DICUMAROL]
- ML-2 %inh (ML-2; ML-2 %inh, 10 µM): -1.314%
- CHRF288-11 %inh (CHRF288-11; CHRF288-11 %inh, 10 µM): 8.973%
- MV4-11 %inh (MV4-11; MV4-11 %inh, 10 µM): -2.098%
- MOLM-13 %inh (MOLM-13; MOLM-13 %inh, 10 µM): -3.706%
- M07e %inh (M07e; M07e %inh, 10 µM): -2.456%
- U937 %inh (U937; U937 %inh, 10 µM): -0.6%
- CMS %inh (CMS; CMS %inh, 10 µM): -1.99%
- CMK %inh (CMK; CMK %inh, 10 µM): -3.554%

Structure (SMILES): CCCCCCCCCCCCCCCCOP(=O)([O-])OCC[N+](C)(C)C [SJ000286181-3, MILTEFOSINE]
- ML-2 %inh (ML-2): -0.1071%
- CHRF288-11 %inh (CHRF288-11): 1.656%
- MV4-11 %inh (MV4-11): -0.6681%
- MOLM-13 %inh (MOLM-13): 1.005%
- M07e %inh (M07e): 2.383%
- U937 %inh (U937): -1.059%
- CMS %inh (CMS): -1.205%
- CMK %inh (CMK): -1.001%

Structure (SMILES): C[C@]12CC[C@@H]3c4ccc(O)cc4CC[C@H]3[C@@H]1CCC2=O [SJ000285760-7, ESTRONE]
- ML-2 %inh (ML-2; ML-2 %inh, 10 µM): 0.07519%
- CHRF288-11 %inh (CHRF288-11; CHRF288-11 %inh, 10 µM): -1.204%
- MV4-11 %inh (MV4-11; MV4-11 %inh, 10 µM): 2.184%
- MOLM-13 %inh (MOLM-13; MOLM-13 %inh, 10 µM): -0.4054%
- M07e %inh (M07e; M07e %inh, 10 µM): 1.639%
- U937 %inh (U937; U937 %inh, 10 µM): 0.9734%
- CMS %inh (CMS; CMS %inh, 10 µM): 0.8051%
- CMK %inh (CMK; CMK %inh, 10 µM): 0.6093%

Structure (SMILES): Cc1ccccc1C1=C(c2cn(C)c3ccccc23)C(=O)NC1=O [SJ000581162-1]
- ML-2 %inh (ML-2): 3.854%
- CHRF288-11 %inh (CHRF288-11): 8.356%
- MV4-11 %inh (MV4-11): 6.408%
- MOLM-13 %inh (MOLM-13): 0.3788%
- M07e %inh (M07e): 5.581%
- U937 %inh (U937): 0.403%
- CMS %inh (CMS): 6.978%
- CMK %inh (CMK): 3.937%

Structure (SMILES): C[C@@H]1CN(c2c(F)c(N)c3c(=O)c(C(=O)O)cn(C4CC4)c3c2F)C[C@H](C)N1 [SJ000556731-1, SPARFLOXACIN]
- ML-2 %inh (ML-2; ML-2 %inh, 10 µM): 2.718%
- CHRF288-11 %inh (CHRF288-11; CHRF288-11 %inh, 10 µM): -1.018%
- MV4-11 %inh (MV4-11; MV4-11 %inh, 10 µM): 7.588%
- MOLM-13 %inh (MOLM-13; MOLM-13 %inh, 10 µM): -3.504%
- M07e %inh (M07e; M07e %inh, 10 µM): -0.05975%
- U937 %inh (U937; U937 %inh, 10 µM): 1.66%
- CMS %inh (CMS; CMS %inh, 10 µM): -1.257%
- CMK %inh (CMK; CMK %inh, 10 µM): -4.344%

Structure (SMILES): Cc1nnc(-c2ccc(C)c(-c3ccc(C(=O)Nc4cccc(C#N)c4)cc3)c2)o1 [SJ000573195-1, R4373/145/1]
- ML-2 %inh (ML-2): 2.033%
- CHRF288-11 %inh (CHRF288-11): -2.997%
- MV4-11 %inh (MV4-11): 0.5717%
- MOLM-13 %inh (MOLM-13): 1.779%
- M07e %inh (M07e): -0.9532%
- U937 %inh (U937): -2.444%
- CMS %inh (CMS): -1.248%
- CMK %inh (CMK): 1.609%

Structure (SMILES): CCc1cc(C(N)=S)ccn1 [SJ000285764-4, ETHIONAMIDE]
- ML-2 %inh (ML-2): 0.2945%
- CHRF288-11 %inh (CHRF288-11): 8.533%
- MV4-11 %inh (MV4-11): -3.503%
- MOLM-13 %inh (MOLM-13): -0.3958%
- M07e %inh (M07e): 0.2673%
- U937 %inh (U937): -1.304%
- CMS %inh (CMS): -3.091%
- CMK %inh (CMK): -7.383%

Structure (SMILES): Cn1cc(C2=C(c3c4n(c5ccccc35)CCN(C(N)=S)C4)C(=O)NC2=O)c2ccccc21 [SJ000581017-1]
- ML-2 %inh (ML-2): 14.21%
- CHRF288-11 %inh (CHRF288-11): 61.39%
- MV4-11 %inh (MV4-11): 52.04%
- MOLM-13 %inh (MOLM-13): 83.86%
- M07e %inh (M07e): 14.07%
- U937 %inh (U937): 15.09%
- CMS %inh (CMS): 66.21%
- CMK %inh (CMK): 110.3%

Structure (SMILES): COc1ccc2cc(CCC(C)=O)ccc2c1 [SJ000285475-4, NABUMETONE]
- ML-2 %inh (ML-2; ML-2 %inh, 10 µM): 1.434%
- CHRF288-11 %inh (CHRF288-11; CHRF288-11 %inh, 10 µM): -4.035%
- MV4-11 %inh (MV4-11; MV4-11 %inh, 10 µM): -0.967%
- MOLM-13 %inh (MOLM-13; MOLM-13 %inh, 10 µM): 3.416%
- M07e %inh (M07e; M07e %inh, 10 µM): -0.5005%
- U937 %inh (U937; U937 %inh, 10 µM): 0.6601%
- CMS %inh (CMS; CMS %inh, 10 µM): -2.394%
- CMK %inh (CMK; CMK %inh, 10 µM): 3.657%
